What was measured:
Assay type in all cases: functional, cell-based
[1] = test system: SK-OV-3; test: Antiproliferative activity against human SK-OV-3 cells assessed as inhibition of cell growth incubated for 72 hrs by MTT assay; conditions: SK-OV-3, 72 h
[2] = test system: KG-1; test: Antiproliferative activity against human KG-1 cells assessed as inhibition of cell growth incubated for 72 hrs by MTT assay; conditions: KG-1, 72 h
[3] = test system: U-937; test: Antiproliferative activity against human U-937 cells assessed as inhibition of cell growth incubated for 72 hrs by MTT assay; conditions: U-937, 72 h
[4] = test system: THP-1; test: Antiproliferative activity against human THP-1 cells assessed as inhibition of cell growth incubated for 72 hrs by MTT assay; conditions: THP-1, 72 h
[5] = Antiproliferative activity against human SK-OV-3/Taxol cells assessed as inhibition of cell growth incubated for 72 hrs by MTT assay; conditions: SK-OV-3, 72 h

Compound | IC50 [1] [µM] | IC50 [2] [µM] | IC50 [3] [µM] | IC50 [4] [µM] | IC50 [5] [µM]
O=C(/C=C/c1ccc(C(F)(F)F)cc1)c1cnccn1 | 9.72 | 7.87 | 11.9 | 8.3 | 10.4
CCc1nccnc1C(=O)/C=C/c1ccc(Cl)cc1 | 7.08 | 3.67 | 2.3 | 4.7 | 6.72
CSc1ccc(/C=C/C(=O)c2cnccn2)cc1 | 6.48 | 5.56 | 7.06 | 8.37 | 8.03
CCN(CC)c1ccc(/C=C/C(=O)c2cnccn2)cc1 | > 50 | > 50 | > 50 | > 50 | > 50
Cc1nccnc1C(=O)/C=C/c1ccc(F)cc1 | 30.7 | 21.7 | 26.1 | 30.2 | 29.2
CCc1nccnc1C(=O)/C=C/c1ccccc1C | 8.68 | 22.9 | 3.43 | 4.91 | 10.8
CCc1nccnc1C(=O)/C=C/c1cccc(Cl)c1 | 4.69 | 3.66 | 1.23 | 5.95 | 5.11
O=C(/C=C/c1ccccc1F)c1cnccn1 | 3.88 | 9.89 | 11.9 | 11.9 | 6.18
Cc1nccnc1C(=O)/C=C/C=C/c1ccc(F)cc1 | 10.8 | 27.4 | 10.3 | 45.4 | 11.4
CCc1nccnc1C(=O)/C=C/c1ccc(N(CC)CC)cc1 | > 50 | 24.7 | 30.4 | 29.5 | > 50
CCc1nccnc1C(=O)/C=C/C=C/CCC=C(C)C | > 50 | 35.7 | 39.7 | > 50 | > 50
CCc1nccnc1C(=O)/C=C/C=C/c1ccc(F)cc1 | 7.98 | 6.91 | 5.25 | 7.16 | 8.25
COc1ccc(/C=C/C(=O)c2cnccn2)cc1OC | > 50 | 4.84 | 4.79 | 6.55 | > 50
CCc1nccnc1C(=O)/C=C/c1ccc(-c2ccccc2)cc1 | 16.9 | 22.6 | 9.55 | 9.14 | 16.4
CCc1nccnc1C(=O)/C=C/c1cccc(Cl)c1Cl | 11.3 | 10.5 | 4 | 14.5 | 11.3
Cc1nccnc1C(=O)/C=C/c1ccc(Br)cc1 | 12.7 | 20.9 | 11.3 | 31.1 | 13.7
CCc1nccnc1C(=O)/C=C/c1cc2c(cc1[N+](=O)[O-])OCO2 | 4.29 | 9.24 | 3.39 | 3.19 | 4.75
CCc1nccnc1C(=O)/C=C/c1csc2ccccc12 | 2.06 | 14.4 | 1.76 | 2.39 | 2.29
CCc1nccnc1C(=O)/C=C/c1ccc(C(F)(F)F)cc1 | 5.92 | 9.21 | 5.78 | 3.04 | 7.29
Cc1nccnc1C(=O)/C=C/c1ccc(Cl)cc1Cl | 6.39 | 7.67 | 4.66 | 9.16 | 6.71
N#Cc1ccc(/C=C/C(=O)c2cnccn2)cc1 | 11.2 | 15.9 | 23.2 | 16.2 | 12.6

Compound | IC50 [1] [µM] | IC50 [2] [µM] | IC50 [3] [µM] | IC50 [4] [µM] | IC50 [5] [µM]
CCc1nccnc1C(=O)/C=C/c1ccccc1Br | 7.93 | 3.58 | 1.58 | 4.57 | 8.35
Cc1nccnc1C(=O)/C=C/c1cccc([N+](=O)[O-])c1 | 5.62 | 4.76 | 2.46 | 2.23 | 6.38
Cc1nccnc1C(=O)/C=C/c1cccc(F)c1 | 4.39 | 1.93 | 2.41 | 2.12 | 5.33
CCc1nccnc1C(=O)/C=C/c1ccc(F)cc1 | 3.11 | 3.57 | 2.38 | 7.23 | 3.5
Cc1nccnc1C(=O)/C=C/c1ccccc1 | 5.17 | 1.64 | 5.43 | 1.79 | 5.04
CCc1nccnc1C(=O)/C=C/c1ccc2c(c1)OC(F)(F)O2 | 3.74 | 9.09 | 5.48 | 5.36 | 3.72
Cc1nccnc1C(=O)/C=C/c1ccc(C(F)(F)F)cc1 | 7.57 | 5.66 | 3.23 | 5.23 | 8.99
CCc1nccnc1C(=O)/C=C/c1ccccc1[N+](=O)[O-] | 2.49 | 3.68 | 1.46 | 1.5 | 4.12
Cc1nccnc1C(=O)/C=C/c1ccc(F)cc1F | 3.33 | 6.15 | 13.5 | 17.6 | 2.99
Cc1ccc(/C=C/C(=O)c2nccnc2C)cc1 | 3.83 | 3.83 | 2.6 | 1.93 | 3.3
Cc1nccnc1C(=O)/C=C/c1csc2ccccc12 | 4.78 | 1.54 | 1.5 | 2.07 | 3.28
Cc1nccnc1C(=O)/C=C/c1ccc2c(c1)OC(F)(F)O2 | 5.1 | 6.52 | 3.63 | 5.89 | 6.11
O=C(/C=C/c1cccc(Cl)c1)c1cnccn1 | 10.9 | 9.97 | 11.5 | 10.3 | 10.6
CCc1nccnc1C(=O)/C=C/c1ccccc1N1CCOCC1 | 4.05 | 5.46 | 4.45 | 3.44 | 3.96
CC(/C=C/C(=O)c1cnccn1)=C\c1ccccc1 | 29.6 | 44.5 | 22.8 | 19.4 | 30.6
CCN(CC)c1ccc(/C=C/C(=O)c2nccnc2C)cc1 | 3.39 | 7.14 | 6.4 | 8.07 | 8.29
CCc1nccnc1C(=O)/C=C/c1ccccc1Cl | 5.06 | 3.17 | 5.91 | 4.45 | 5.58
Cc1ccccc1/C=C/C(=O)c1nccnc1C | 2.59 | 13 | 2.55 | 4.97 | 3.8
O=C(/C=C/c1cccc(Br)c1)c1cnccn1 | 13.5 | 23.4 | 8.19 | 11 | 17
CSc1ccc(/C=C/C(=O)c2nccnc2C)cc1 | 4.72 | 6.84 | 3.9 | 6.01 | 6.8
Cc1ccc(/C=C/C(=O)c2cnccn2)cc1 | 10.1 | 11.4 | 23 | 19.9 | 16.6
